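Five compound concentrations were applied to cells in 96-well plates for 48 hours; endpoints were derived by simple linear interpolation of the resulting dose-response curve. At the GI50, growth is halved. TGI: concentration producing complete growth inhibition.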
What was measured:
Assay in all cases: NCI anticancer screen, dose series, 48 h
MDA-MB-435 = tested on: MDA-MB-435
U251 CNS = tested on: U251 CNS
HOP-92 NSCLC = tested on: HOP-92 NSCLC
SN12C renal = tested on: SN12C renal
OVCAR-8 ovarian = tested on: OVCAR-8 ovarian
HS 578T breast = tested on: HS 578T breast
A498 renal = tested on: A498 renal
HCT-15 colon = tested on: HCT-15 colon
MDA-MB-231 breast = tested on: MDA-MB-231 breast
UACC-257 melanoma = tested on: UACC-257 melanoma

Row | Structure (SMILES) | GI50 (MDA-MB-435) | TGI (MDA-MB-435) | GI50 (U251 CNS) | TGI (U251 CNS) | GI50 (HOP-92 NSCLC) | TGI (HOP-92 NSCLC) | GI50 (SN12C renal) | TGI (SN12C renal) | GI50 (OVCAR-8 ovarian) | TGI (OVCAR-8 ovarian) | GI50 (HS 578T breast) | TGI (HS 578T breast) | GI50 (A498 renal) | TGI (A498 renal) | GI50 (HCT-15 colon) | TGI (HCT-15 colon) | GI50 (MDA-MB-231 breast) | TGI (MDA-MB-231 breast) | GI50 (UACC-257 melanoma) | TGI (UACC-257 melanoma)
1 | OCC#CCCCCOCC#Cc1ccccc1C#CCOCCCCC#CCO | 20 µM | 45.9 µM | 17.2 µM | 35.2 µM | 28.8 µM | 62 µM | 22.3 µM | 39 µM | 52.3 µM | > 100 µM | 25 µM | 65.4 µM | 4.35 µM | 34.3 µM | 16.3 µM | 34.7 µM | 16.1 µM | 38.3 µM | 37.3 µM | > 100 µM
2 | CC(=O)N1N=C(c2ccc(Nc3nc(Nc4ccc(F)cc4)nc(Nc4ccc(Cl)cc4)n3)cc2)CC1c1ccc(N(C)C)cc1 (stereo not given) | 5.68 µM | 20.9 µM | 4.2 µM | 35.7 µM | 2.87 µM | 19.1 µM | 6.1 µM | 33.3 µM | 3.75 µM | 23.4 µM | 8.09 µM | 97.9 µM | 14.4 µM | 50.5 µM | 2.64 µM | 30.5 µM | 5.66 µM | 21 µM | 7.67 µM | 26.1 µM
3 | C[C@@H]1CC[C@@H]2[C@@H]1[C@H](OC(=O)c1ccc3ccccc3c1)[C@]1(C3CCCCC3)C[C@@H](OC(=O)CO)[C@@]2(C)O1 | 14.1 µM | 29.4 µM | 10.9 µM | 23 µM | 3.15 µM | 15.4 µM | 0.0525 µM | 12.6 µM | 5.62 µM | 26.5 µM | 0.023 µM | 0.0757 µM | 0.0191 µM | 0.0679 µM | 7.93 µM | 22.4 µM | 13.6 µM | 29.3 µM | 12.9 µM | 26.3 µM
4 | CCOC(=O)C(O)Cc1cnc2ccccc2n1 (stereo not given) |  | > 100 µM |  | > 100 µM |  | > 100 µM |  | > 100 µM |  | > 100 µM |  | > 100 µM |  | > 100 µM |  | > 100 µM |  | > 100 µM |  | > 100 µM
5 | COc1ccc(C2SCC(=O)N2NC(=O)C(O)c2ccccc2)cc1 (stereo not given) | > 100 µM | > 100 µM | > 100 µM | > 100 µM | > 100 µM | > 100 µM | > 100 µM | > 100 µM | > 100 µM | > 100 µM | > 100 µM | > 100 µM | > 100 µM | > 100 µM | > 100 µM | > 100 µM | > 100 µM | > 100 µM | > 100 µM | > 100 µM
6 | N#CSCC1CC(O)(c2ccccc2)CC(c2ccc(Cl)cc2)O1 (stereo not given) | 1.9 µM | 4.8 µM | 2.64 µM | 9.03 µM | 2.21 µM | 5.58 µM | 1.81 µM | 3.77 µM | 1.98 µM | 3.94 µM | 3.24 µM | 13.2 µM | 1.88 µM | 8.63 µM | 2.4 µM | 8.05 µM | 2.8 µM | 11.2 µM | 3.29 µM | 9.32 µM
